In patent US9403806B1, “Cognition enhancing compounds and compositions, methods of making, and methods of treating” (NeuroSolis, Inc., priority 2010, dated 2016):
Structures can show the parent of a compound that is named as a salt.

Experiments:
[1] = test system: rats; assay: In vivo muscarinic effects in rats after oral dosing
Description: In these respects it was essentially the same as compound 3.

[2] = biological target: T1, rat M3 receptors (Rattus norvegicus, UniProt P08483); assay: PI turnover (inositol phosphate production) in M3-CHO cells; type: cell-based; conditions: mean Smax relative to carbachol (100.0); CHO cells expressing rat M3
T1 construct: host or cells: CHO (M3-CHO)
Experimental: The medium was changed to 70 μL/well of inositol-free DMEM containing 2 mM glutamine, 10% FBS and 10 μCi/ml of [3H]-inositol (PE:cat # NET114A250UC), incubated overnight as above, then 100 μL of a solution of the test compound in HBSS containing 10 mM LiCl and 20 mM HEPES, pH 7.4 was added, incubation was continued for 60 min under the above conditions, and the test was stopped by removing the test compound and replacing with 100 μL of 50 mM formic acid in water at 4° C. […] The compounds in Table 1 are all dihydropyrimidine-oxadiazoles which vary only at the oxadiazole side chain.

[3] = test system: pooled male human liver microsomes; assay: Metabolism by human liver microsomes, Example 33; type: in vitro ADME; conditions: 6 hours incubation (FIGS. 4A, 4B)
Experimental: Compounds were incubated with pooled male human liver microsomes (BD Biosciences, #452172) and an NADP-regenerating system in a phosphate buffer (pH 7.4) for a total of 6 hours. Aliquots were removed every 2 hours, and 1% formic acid was added to halt the reaction. Samples were centrifuged, filtered through 0.2 micron spinfilter and the amount of each compound in the supernatants was quantitated using LC/MS/MS.

[4] = biological target: T2, human FMO1 Supersomes (Homo sapiens, UniProt Q01740); assay: Metabolism by flavin monoxygenase 1 (FMO1) Supersomes; type: in vitro ADME; conditions: after 6 hours (FIG. 2)
T2 construct: purchased BD Biosciences 456241
T2 sequence (Q01740 1-532): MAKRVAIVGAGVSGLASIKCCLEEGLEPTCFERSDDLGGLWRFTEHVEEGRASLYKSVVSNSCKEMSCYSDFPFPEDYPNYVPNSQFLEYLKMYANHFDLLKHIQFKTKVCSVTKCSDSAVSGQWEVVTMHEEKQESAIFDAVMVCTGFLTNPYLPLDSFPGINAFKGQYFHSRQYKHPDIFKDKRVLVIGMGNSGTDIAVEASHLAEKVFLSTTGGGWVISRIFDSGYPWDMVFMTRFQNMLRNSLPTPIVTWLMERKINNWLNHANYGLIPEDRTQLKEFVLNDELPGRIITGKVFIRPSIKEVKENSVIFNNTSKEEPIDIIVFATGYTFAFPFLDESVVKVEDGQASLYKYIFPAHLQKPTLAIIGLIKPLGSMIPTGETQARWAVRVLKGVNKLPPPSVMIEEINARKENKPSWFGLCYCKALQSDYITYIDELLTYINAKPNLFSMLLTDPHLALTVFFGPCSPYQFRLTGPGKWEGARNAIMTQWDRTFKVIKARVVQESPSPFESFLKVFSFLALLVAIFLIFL
Experimental: […] Aliquots were removed every 10 minutes, and 1% formic acid was added to halt the reaction. Samples were centrifuged, filtered through 0.2 micron spinfilter and the amount of each compound in the supernatants was quantitated using LC/MS/MS.

[5] = Metabolites in serum and urine of dosed rats (LC-MS); type: in vivo; conditions: rats, dosed orally
Experimental: Oxadiazoles disclosed herein as well as other oxadiazoles were investigated to determine the formation of metabolites. Animals were dosed, blood taken, serum prepared, serum proteins precipitated and ultrafiltrates prepared as described in Example 6. In separate experiments, urine was collected from rats for 16-24 hours after dosing, using standard metabolic cages. The urine container and collected urine were maintained at 4° C. Urine was lyophilized, taken back into water. The uftrafiltrate was prepared by adding formic acid to a final concentration of 1% to the urine samples, then filtered through a 0.2 um nylon membrane. The ultrafiltrate was subjected to LC-MS analysis. Instead of measuring the product ions in Q3, manual Q1 scans of the liquid chromatograph were undertaken, seeking parent ions of potential metabolites of the compounds. The criteria for identifying metabolites were as follows: (1) the ion should be present in the sera or urines of dosed rats, but not in sera or urines from non-dosed rats (2) the ion should be identifiable as a metabolic derivative of the dosed compound (e.g. loss of a functional chemical moiety, addition of a hydroxyl group or a glucuronic acid moiety, etc). Metabolites were determined not to be present if no compound meeting the above criteria could be detected in serum or urine.

[6] = biological target: T3, human muscarinic M3 receptors (Homo sapiens, UniProt P20309); assay: IP production in A9L cells with human M3 receptors (IPOne TR-FRET), Example 28; type: cell-based; conditions: for huM3/A9L Smax: percentage of maximal stimulation by carbachol; for huM3/A9L ED50 relative to CCh*: potency relative to carbachol at its EC50, semi-quantitative
T3 construct: host or cells: A9L cells
In short: (§1)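 A9L cells transfected with human M1 or M3 receptors, exposed to compound in medium with 10 mM LiCl and 10 mM HEPES (pH 7.4) for 60 min at 37 °C. IP in lysates measured by IPOne TR-FRET; efficacy expressed relative to full agonist (100%).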

[7] = Blood and brain concentrations (rats), oral gavage; type: in vivo, Long-Evans Hooded rats; conditions: rats, oral dosing
Experimental: Long-Evans Hooded rats (Charles River: male, 250-350 g) were dosed with solutions of test compounds in PBS by oral gavage. At the desired time after dosing, the animals were anesthetized with isoflurane, and then euthanized by cervical dislocation. Blood was obtained by cardiac puncture, transferred to a 1.5 mL microcentrifuge tube containing 15U Heparin, and the plasma recovered after centrifugation. Brains were dissected, weighed, immediately chilled to 4° C., and homogenized using a PowerGen 125 homogenizer in five volumes of ice-cold 2% formic acid. Proteins were precipitated from plasma and brain homogenate with two and five volumes respectively of ice-cold 2% formic acid and clarified by centrifugation. The supernatant was ultra-filtered by centrifugation through a 3K MWCO spin column (Pall Life Sciences), following the manufacturer's instructions. The concentration of compound in the ultra-filtrate was subjected to reverse-phase liquid chromatography using a 150×2.1 mm Agilent C8 reverse-phase column on a Shimadzu Prominence LC, eluting the compounds with a gradient of 2% to 50% of acetonitrile+0.1% formic acid for compound MI-50,382, or an isocratic flow of 2% acetonitrile+0.1% formic acid for the rest of the compounds listed. The concentration of the compound in the column effluent was measured using an Applied Biosystems API-3200 triple quadrupole mass spectrometer equipped with an electrospray sample injection system. The counts of the characteristic parent and product ions of each test compound were converted to concentration units by comparison with a standard calibration curve.

[8] = biological target: T4, human muscarinic M1 receptors (Homo sapiens, UniProt P11229); assay: IP production in A9L cells with human M1 receptors (IPOne TR-FRET), Example 28; type: cell-based; conditions: for huM1/A9L Smax: percentage of maximal stimulation by carbachol; for huM1/A9L ED50 relative to CCh*: potency relative to carbachol at its EC50, semi-quantitative
T4 construct: host or cells: A9L cells
T4 sequence (P11229 1-460): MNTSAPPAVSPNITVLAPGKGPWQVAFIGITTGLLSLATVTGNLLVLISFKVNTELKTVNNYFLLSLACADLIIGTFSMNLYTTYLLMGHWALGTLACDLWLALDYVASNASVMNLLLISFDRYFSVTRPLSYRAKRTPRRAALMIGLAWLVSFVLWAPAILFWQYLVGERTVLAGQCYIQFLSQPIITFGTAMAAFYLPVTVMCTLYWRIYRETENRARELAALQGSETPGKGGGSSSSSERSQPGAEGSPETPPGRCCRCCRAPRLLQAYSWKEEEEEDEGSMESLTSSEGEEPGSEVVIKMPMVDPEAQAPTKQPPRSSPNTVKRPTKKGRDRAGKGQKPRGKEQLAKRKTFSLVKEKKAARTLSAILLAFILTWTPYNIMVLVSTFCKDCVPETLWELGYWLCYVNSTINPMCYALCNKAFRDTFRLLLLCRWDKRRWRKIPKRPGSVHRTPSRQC
In short: as §1

[9] = in vitro; type: in vitro ADME; conditions: PAMPA, pH 7.4, PAMPA Permeability Coefficient (×10^6)
In short: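 Compounds at 400 μM in 100 mM phosphate buffer pH 7.4 diffused through a filter pre-wetted with 20 mg/mL porcine brain polar lipid extract in dodecane into matching buffer, 24 h at room temperature. Donor, acceptor and stock samples were acidified with 1% TFA, quantified by LC/UV, and passive diffusion rates calculated from peak areas.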

[10] = in vitro; conditions: PAMPA
[11] = test system: hippocampal inositol phosphate; assay: In vivo tissue inositol phosphate signaling pathway activation, hippocampus; parameters: species or system Long Evans Hooded rats; conditions: normal rats, dose-dependent 0.03 mg/kg to at least 3 mg/kg (FIG. 10A)
Experimental: Experimental compounds or drug substances were administered using standard techniques to Long Evans Hooded rats weighing 225 to 350 grams, and which had been pretreated with a subcutaneous injection of lithium chloride at a suitable dose between 3 and 10 mmoles per kg. At suitable times the animals were briefly anesthetized using 5% isoflurane and euthanized by decapitation. The brains and submaxillary salivary glands were rapidly dissected out, and the hippocampuses were dissected from the brains. The dissected tissues were homogenized in a suitable volume of ice-cold phosphate-buffered saline containing 10 mM lithium chloride, pH7.4, using a tissue homogenizer, and used immediately or frozen in aliquots at −80 deg C. for future use. The concentration of inositol-1-phosphate was determined in the homogenates using the IPOne TR-FRET assay (CisBio cat no 621PAPEB), following the manufacturer's instruction

[12] = test system: A-beta 1-40 and A-beta 1-42; assay: A-beta in hippocampal microdialysate of transgenic mice; type: in vivo, Tg-2576 transgenic mice; conditions: Tg-2576 mice, single dose (FIG. 14)
Description: These mice have high concentrations of A-beta in their brain tissue, thought to be the cause of neuron death in Alzheimer's disease, and accumulate amyloid plaques, recapitulating one of the hallmark pathological features of Alzheimer's disease.

[13] = test system: anesthetized normal rats; assay: In vivo measurement of salivation; parameters: species or system Long Evans Hooded rats; conditions: anesthetized normal rats, dose-dependent between about 0.1 mg/kg and 1 mg/kg (FIG. 11)
Experimental: Suitable doses of test compounds or drug substances were administered using standard techniques to Long Evans Hooded rats weighing 225 to 350 grams, or CD-1 mice weighing 30 to 50 grams, which had been anesthetized using 2-3.5%% of isoflurane in oxygen. The animals were placed slightly head-down on an inclined, heated ramp. Rectal temperature was monitored using a thermocouple and the temperature of the heating pad was adjusted manually to maintain normal body temperature. Saliva was collected from the mouth by absorption onto pre-weighed slips of filter paper. The filter paper was changed periodically and the amount of saliva was measured by weighing the filter paper slips

[14] = test system: CD-I mice; assay: Apomorphine induced climbing model of psychosis; type: in vivo
Experimental: As described in Costall et. al. European Journal of Pharmacology 1978, 50, 39. individual CD-I mice, 1-2 months old, were placed in a cylindrical wire mesh cage (13.2 cm high×13.2 cm diameter) constructed of steel wire 1 mm thick spaced at 1.2 cm^2. Cylinders were placed in a standard OptiMICE mouse cage (29×32×9×29 cm and 14 cm high) with adequate wood chip bedding provided. Observations of climbing (defined as 3 or more paws of the ground) were carried out every 5 minutes at a duration of 1 minute for […]. Animals were injected subcutaneously under isoflurane anesthesia with test compounds, reference compounds, which included clozapine, haloperidol, olanzapine and xanomeline, or PBS as a control. This was followed 5 minutes later by 2 mg/kg apomorphine hydrochloride. All drugs were dissolved in PBS or a mixture of (by volume) 96% PBS and 4% hydroxypropyl-beta-cyclodextrin, and dosed at a rate of 5 ml per kilogram of body weight. Following injections, animals were replaced in the mesh cages and observed for climbing (defined as 3 or more paws off the ground) every 5 minutes for 1 minute for 60 minutes after dosing.

[15] = mice, sc, apomorphine 2 mg/kg (FIG. 1)

T3 sequence (P20309 whole entry): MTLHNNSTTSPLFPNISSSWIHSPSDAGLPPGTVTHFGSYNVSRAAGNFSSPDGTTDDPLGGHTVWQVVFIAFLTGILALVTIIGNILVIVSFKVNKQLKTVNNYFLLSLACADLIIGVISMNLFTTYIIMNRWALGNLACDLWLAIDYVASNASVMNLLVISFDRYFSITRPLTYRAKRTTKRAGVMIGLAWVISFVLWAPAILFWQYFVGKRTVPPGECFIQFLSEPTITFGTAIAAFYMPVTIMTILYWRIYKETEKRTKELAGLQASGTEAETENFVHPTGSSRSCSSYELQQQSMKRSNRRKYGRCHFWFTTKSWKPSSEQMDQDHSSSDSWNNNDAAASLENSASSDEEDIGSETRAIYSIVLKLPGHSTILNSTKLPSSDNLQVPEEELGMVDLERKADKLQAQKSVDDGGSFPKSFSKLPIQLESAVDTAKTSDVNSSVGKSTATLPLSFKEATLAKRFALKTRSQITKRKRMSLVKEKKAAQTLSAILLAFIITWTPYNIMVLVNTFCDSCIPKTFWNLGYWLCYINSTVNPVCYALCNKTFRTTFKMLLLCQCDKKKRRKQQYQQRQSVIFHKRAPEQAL
T1 sequence (P08483 whole entry): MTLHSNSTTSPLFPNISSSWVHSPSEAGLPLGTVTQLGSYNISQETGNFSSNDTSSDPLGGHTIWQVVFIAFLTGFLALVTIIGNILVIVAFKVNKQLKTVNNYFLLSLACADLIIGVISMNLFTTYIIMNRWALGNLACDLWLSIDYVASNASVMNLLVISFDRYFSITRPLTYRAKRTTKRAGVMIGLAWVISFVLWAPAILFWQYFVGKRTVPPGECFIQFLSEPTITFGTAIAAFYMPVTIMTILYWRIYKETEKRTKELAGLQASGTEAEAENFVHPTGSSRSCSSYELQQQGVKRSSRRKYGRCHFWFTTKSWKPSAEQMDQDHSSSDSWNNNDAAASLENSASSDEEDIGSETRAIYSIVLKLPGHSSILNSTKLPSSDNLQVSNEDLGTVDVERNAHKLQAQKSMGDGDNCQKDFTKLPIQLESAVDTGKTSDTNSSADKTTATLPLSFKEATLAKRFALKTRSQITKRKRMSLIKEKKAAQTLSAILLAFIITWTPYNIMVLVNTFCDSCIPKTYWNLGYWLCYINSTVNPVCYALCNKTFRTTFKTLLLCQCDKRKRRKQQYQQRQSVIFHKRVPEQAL

With “3-Methyl-5-(piperidin-3-yl)-1,2,4-oxadiazole [Compound 3]” the “salivary flow after oral dosing” value ([1]; rats, dosed orally) was “produced copious salivary flow”.

In the case of `[2H]C([2H])([2H])c1noc(C2CN=CNC2)n1` (stereo not drawn) [Compound 4c, 3-(d3-methyl)-5-(1,4,5,6-tetrahydropyrimidin-5-yl)-1,2,4-oxadiazole hydrochloride], the “M3/CHO PI turnover Relative Mean Smax” value [2] is reported as 92.6.

With `[2H]C([2H])([2H])c1noc(C2CCCNC2)n1` (stereo not drawn) [Compound 7, 3-D3-Methyl-5-(piperidin-3-yl)-1,2,4-oxadiazole] the “metabolism in human liver microsomes (in words)” value [3] was “metabolized significantly less in human liver microsomes than in rat liver microsomes”, the “extent of metabolism in FMO Supersomes (in words)” value [4] was “less than half metabolized” and the “muscarinic agonist activity in vivo” value ([1]; in vivo) was “demonstrated muscarinic agonist activity in vivo”. For the same molecule, the “metabolites identified in plasma or urine” value [5] was “No metabolites were identified”, the “huM3/A9L Smax” value [6] was 60% and the “huM3/A9L ED50 relative to CCh*” value [6] was “+/− (+/− potency 0.5-2x CCh)”. For the same molecule, the “penetration into the brain after oral dosing” value [7] was “penetrated into the brain”, the “plasma concentrations relative to compound 1 after oral dosing” value ([7]; versus compound 1) was “approximately 2.4 times” and the “huM1/A9L Smax” value [8] was 116%. The “huM1/A9L ED50 relative to CCh*” value [8] was “+ (+ potency 2-10x CCh)”.

`Clc1cccc(Cl)c1N=C1NCCN1` [Clonidine, reference compound] gave a Papp [9] of 7.66 ×10⁻⁶ cm/s and a Papp [10] of 7.95 ×10⁻⁶ cm/s.

For `Cc1noc(C2CCCNC2)n1` (racemic) [Compound 3, 3-Methyl-5-(piperidin-3-yl)-1,2,4-oxadiazole], the “metabolism in human liver microsomes (in words)” value [3] was “metabolized significantly less in human liver microsomes than in rat liver microsomes”, the “hippocampal IP response” value [11] was “causes an increase in the hippocampal IP response” and the “extent of metabolism in FMO Supersomes (in words)” value [4] was “less than half metabolized”. The “huM3/A9L Smax” value [6] was 54%, the “huM3/A9L ED50 relative to CCh*” value [6] was “+/− (+/− potency 0.5-2x CCh)” and the “reduction of the concentration of A-beta 1-40 in hippocampal microdialysate” value [12] was “approximately 40%”. The “reduction of the concentration of A-beta 1-42 in hippocampal microdialysate” value [12] was “approximately 40%”, the salivation [13] was “causes salivation” and the Papp [10] was 2.56 ×10⁻⁶ cm/s. For the same molecule, the “huM1/A9L Smax” value [8] was 108%, the “huM1/A9L ED50 relative to CCh*” value [8] was “+ (+ potency 2-10x CCh)” and the “Climbing Mean” value ([14]; Cmpd 3 0.1 mg/kg + APO 2 mg/kg) was 8.9 s. For the same molecule, the “Climbing Mean” value ([14]; Cmpd 3 0.1 mg/kg + APO + N-Methyl Scopolamine 0.3 mg/kg) was 12.3 s, the “Climbing Mean” value ([14]; Cmpd 3 0.1 mg/kg + APO + scopolamine 0.3 mg/kg) was 47.0 s and the “activity in the apomorphine induced climbing model” value [14, 15] was “highly active and highly potent”. For the same molecule, the “potency in inhibiting climbing compared with haloperidol” value [14, 15] was “equipotent to haloperidol”.
